Reference: US10611730B2, “Benzimidazolone and benzothiazolone compounds and their use as AMPA receptor modulators” (Janssen Pharmaceutica NV, priority 2015, dated 2020)

What was measured:
[1] = molecular target: TARP γ8 dependent AMPA receptor (GluA1o-g8 fusion channel) (Homo sapiens (Human), UniProt P42261+Q8WXS5); assay: Calcium flux assay (FLIPR), HEK293 cells expressing GRIA1o-CACNG8 fusion; assay type: cell-based; conditions: inhibition of calcium flux after 15 μM glutamate; for IC50: read-out: GluR1-γ8 pIC50 (converted)
Procedure, shortened: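 Stable HEK293 clone expressing GluA1o-γ8 fusion (1:1 stoichiometry), loaded with Calcium-5/6 dye plus test compound; glutamate-evoked fluorescence normalized to control wells. Concentration-response fitted to four-parameter logistic, midpoint taken as inhibitory potency.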

[2] = system: endogenous γ 8-containing AMPA receptor currents; assay: Whole-cell electrophysiology on acutely-dissociated mouse hippocampal neurons; assay type: cell-based; conditions: 10 mM glutamate, 500 ms, held at −60 mV
Method: The effects of selected compounds upon endogenous γ 8-containing AMPA receptor currents was evaluated using whole-cell electrophysiology on acutely-dissociated mouse hippocampal neurons. Hippocampus was chosen for this assay, since CACNG8 (the protein encoded by this gene is a type I transmembrane AMPA receptor regulatory protein i.e., TARP) is preferentially enriched in this brain region (Tomita et al. (2003). “Functional studies and distribution define a family of transmembrane AMPA receptor regulatory proteins.” J Cell Biol 161(4): 805-816.2003).
Hippocampi were dissected from C57black6 mice at 4-12 weeks postnatal, following the protocol described by Brewer (Brewer, G. J. (1997). “Isolation and culture of adult rat hippocampal neurons.” Journal of Neuroscience Methods 71(2): 143-155). The following is a brief summary of the procedure. Mice were asphyxiated with CO2 then decapitated. The brain was rapidly removed, then placed into ice-cold HABG medium. The recipe for HABG medium was: HibernateA supplemented with 2% B27 and 0.5 mM Glutamax (all reagents from Life Technologies). Hippocampi were micro-dissected from the brains, then washed with HABG without calcium (Hibernate A minus Calcium, BrainBits; 2% B27, Life Technologies; 0.5 mM glutamax, Life Technologies).
The hippocampi were then transferred to HABG without calcium, supplemented with 2 mg/mL papain (Worthington Biochemical). They were incubated at 30° C. on a roller for 40 min, then gently triturated with a fire-polished glass pipette. The supernatant containing dissociated neurons was collected, then centrifuged for 2 min at 200 g. The cell pellet was collected, and then resuspended in 8 mL of HABG. Live cells were counted, then plated onto 12 mm glass coverslips in HABG (2 mL) in 24-well plates at a density of 50-100 cells per coverslip. These cells were maintained at room temperature until use.
Whole-cell electrophysiology was performed using 1.5 mm diameter glass capillary tubes (World Precision Instruments TW150-4), pulled to a fine tip with a Sutter P-97 micropipette puller. The intracellular buffer was 90 mM KF, 30 mM KCl, 10 mM HEPES, and 5 mM EGTA, pH 7.4, 290 mOs. The extracellular buffer was 135 mM NaCl, 4 mM KCl, 2 mM CaCl2), 1 mM MgCl2, 5 mM glucose, 10 mM HEPES, pH 7.4, 300 mOs. The open-tip resistances of the micropipettes using these solutions were 2-4MΩ. Whole-cell recordings of neuron cell bodies were performed in voltage-clamp mode using an Axon Axopatch 200B amplifier. Whole-cell current was measured holding the interior of the cell at −60 mV, using a 5 kHz lowpass filter. The cells were continuously perfused through 7 mm square glass barrels using a solenoid-controlled solution switching device (Warner Instruments, PF-77B). The peak current in response to a 500 ms exposure to 10 mM glutamate every 5 seconds was measured, before and after exposure to test compound.
For analysis, the mean peak current of 5 traces in the presence of test compound was divided by the mean peak current of 5 traces prior to the addition of test compound. Compounds were tested at concentrations at least ten times higher than their estimated potency in the calcium flux assay, in order to ensure near-saturating occupancy of the receptor.
The table below summarizes the results of this electrophysiological assay. Peak current (% control) is mean of the peak response to glutamate in the presence of the indicated compound, normalized to the peak response to glutamate in the absence of test compound. N is the number of neurons tested. The compounds were tested at concentrations noted below in Table 5. At the said tested concentrations, the peak response to glutamate was reduced compared to controls for all tested compounds.

TARP γ8 dependent AMPA receptor (GluA1o-g8 fusion channel), sequence (P42261 other isoform, or with tags, fused parts or gaps): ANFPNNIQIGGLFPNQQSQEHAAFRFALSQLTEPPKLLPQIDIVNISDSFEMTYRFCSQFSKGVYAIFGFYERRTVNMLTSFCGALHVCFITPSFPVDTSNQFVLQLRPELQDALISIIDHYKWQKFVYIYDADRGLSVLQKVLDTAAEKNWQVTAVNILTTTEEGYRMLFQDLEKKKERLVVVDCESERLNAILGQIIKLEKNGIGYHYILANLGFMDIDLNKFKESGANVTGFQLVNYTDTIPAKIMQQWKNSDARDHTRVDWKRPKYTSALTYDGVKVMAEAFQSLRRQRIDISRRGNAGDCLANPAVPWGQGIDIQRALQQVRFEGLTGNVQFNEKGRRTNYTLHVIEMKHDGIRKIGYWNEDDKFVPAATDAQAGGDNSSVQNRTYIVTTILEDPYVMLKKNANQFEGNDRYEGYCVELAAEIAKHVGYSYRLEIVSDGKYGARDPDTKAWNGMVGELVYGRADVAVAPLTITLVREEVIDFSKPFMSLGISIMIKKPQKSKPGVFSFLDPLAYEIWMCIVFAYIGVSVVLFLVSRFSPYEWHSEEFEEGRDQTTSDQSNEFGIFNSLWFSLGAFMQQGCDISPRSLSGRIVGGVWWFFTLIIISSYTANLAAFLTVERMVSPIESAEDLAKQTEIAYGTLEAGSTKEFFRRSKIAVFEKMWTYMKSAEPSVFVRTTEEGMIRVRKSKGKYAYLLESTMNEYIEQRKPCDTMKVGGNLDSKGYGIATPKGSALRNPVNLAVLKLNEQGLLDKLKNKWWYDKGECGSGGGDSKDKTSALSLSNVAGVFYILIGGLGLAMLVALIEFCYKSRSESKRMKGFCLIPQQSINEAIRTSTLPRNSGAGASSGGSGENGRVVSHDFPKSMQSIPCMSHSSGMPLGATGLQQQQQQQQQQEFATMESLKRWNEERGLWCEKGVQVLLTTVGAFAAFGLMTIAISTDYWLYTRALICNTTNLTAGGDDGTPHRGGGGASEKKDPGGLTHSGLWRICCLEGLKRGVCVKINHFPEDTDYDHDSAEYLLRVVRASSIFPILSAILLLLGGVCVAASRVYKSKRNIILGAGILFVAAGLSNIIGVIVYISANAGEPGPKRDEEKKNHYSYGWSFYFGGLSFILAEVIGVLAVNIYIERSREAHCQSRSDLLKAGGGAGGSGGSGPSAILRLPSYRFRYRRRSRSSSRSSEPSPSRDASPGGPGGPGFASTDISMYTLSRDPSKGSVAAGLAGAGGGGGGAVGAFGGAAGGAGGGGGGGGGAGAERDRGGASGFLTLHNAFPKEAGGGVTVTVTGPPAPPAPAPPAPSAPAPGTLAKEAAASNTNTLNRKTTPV

| SMILES | IC50 [1] [nM] | GluR1-γ8 pIC50 [1] | peak current (% control) ([2]; 10 μM compound) [%] | peak current (% control) ([2]; 1 μM compound) [%] |
| --- | --- | --- | --- | --- |
| Cc1cccc(C)c1-c1ccc2[nH]c(=O)[nH]c2c1 [Example 2, 5-(2,6-Dimethylphenyl)-1,3-dihydrobenzimidazol-2-one] | – | 6.8 | 70 | – |
| COc1cccc(OCC(C)C)c1-c1ccc2[nH]c(=O)[nH]c2c1 [Example 14, 5-(2-Isobutoxy-6-methoxy-phenyl)-1,3-dihydrobenzimidazol-2-one] | 31.6 | – | – | 69 |
| O=c1[nH]c2ccc(-c3c(Cl)cccc3OC(F)(F)F)cc2[nH]1 [Example 31, 5-[2-Chloro-6-(trifluoromethoxy)phenyl]-1,3-dihydrobenzimidazol-2-one] | – | – | – | 61 |
| O=c1[nH]c2ccc(-c3c(Cl)cccc3C3CC3)cc2[nH]1 [Example 160, 5-(2-Chloro-6-cyclopropyl-phenyl)-1,3-dihydrobenzimidazol-2-one] | – | 8.2 | – | 70 |

Second part, led by results:

| IC50 [1] [nM] | SMILES | GluR1-γ8 pIC50 [1] | peak current (% control) ([2]; 10 μM compound) [%] | peak current (% control) ([2]; 1 μM compound) [%] |
| --- | --- | --- | --- | --- |
| 63.1 | Cc1cccc(Cl)c1-c1ccc2[nH]c(=O)[nH]c2c1 [Example 36, 5-(2-Chloro-6-methyl-phenyl)-1,3-dihydrobenzimidazol-2-one] | – | – | 72 |
| 10 | O=c1[nH]c2ccc(-c3c(Cl)ccc(Cl)c3Cl)cc2[nH]1 [Example 66, 5-(2,3,6-Trichlorophenyl)-1,3-dihydrobenzimidazol-2-one] | – | – | 86 |
| 15.8 | N#CCc1cccc(OC(F)(F)F)c1-c1ccc2[nH]c(=O)[nH]c2c1 [Example 123] | – | – | 59 |
| 12.6 | N#CCc1cccc(Cl)c1-c1ccc2[nH]c(=O)[nH]c2c1 [Example 124, 2-[3-Chloro-2-(2-oxo-1,3-dihydrobenzimidazol-5-yl)phenyl]acetonitrile] | – | – | 63 |
